According to patent US11053204B2, “Pyrimidinyloxy benzene derivatives as herbicides” (FMC Corporation, priority 2015, dated 2021):

What was measured:
Format in all cases: in vivo
[1] = test system: pigweed (Amaranthus retroflexus); assay: Test A preemergence, visual injury rating; details: Amaranthus retroflexus, pre-emergence, 240 h, 0 to 100 scale (0 no effect, 100 complete control), read-out: Pigweed plant response rating
How it was run: (§1)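 Visual 0–100 rating (100 = complete control) taken about 10 d post-treatment relative to untreated checks. Preemergence: directed soil spray on sown loam/sand pots. Postemergence: seedlings 2–10 cm, 1–2 leaf. Non-phytotoxic solvent formulation with surfactant.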

[2] = test system: ragweed (common ragweed, Ambrosia elatior); assay: Test A preemergence, visual injury rating; details: Ambrosia artemisiifolia, pre-emergence, 240 h, 0 to 100 scale (0 no effect, 100 complete control), read-out: Ragweed plant response rating
How it was run: as §1

[3] = test system: giant foxtail (Setaria faberii); assay: Test A preemergence, visual injury rating; details: Setaria faberi, pre-emergence, 240 h, 0 to 100 scale (0 no effect, 100 complete control), read-out: Foxtail, Giant plant response rating
How it was run: as §1

kochia (Kochia scoparia) [4] = assay: Test A preemergence, visual injury rating; details: Bassia scoparia, pre-emergence, 240 h, 0 to 100 scale (0 no effect, 100 complete control), read-out: Kochia plant response rating
How it was run: as §1

[5] = test system: Italian ryegrass (Lolium multiflorum); assay: Test A preemergence, visual injury rating; details: Lolium multiflorum, pre-emergence, 240 h, 0 to 100 scale (0 no effect, 100 complete control), read-out: Ryegrass, Italian plant response rating
How it was run: as §1

[6] = test system: barnyardgrass (Echinochloa crus-galli); assay: Test A preemergence, visual injury rating; details: Echinochloa crus-galli, pre-emergence, 240 h, 0 to 100 scale (0 no effect, 100 complete control), read-out: Barnyardgrass plant response rating
How it was run: as §1

[7] = test system: nutsedge, yellow (yellow nutsedge, Cyperus esculentus); assay: Test C postemergence, plant response rating; details: Cyperus, post-emergence
How it was run: (§2)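 Pre-emergence: seeds sown in loam soil–sand blend or silt loam and sprayed with test chemicals in a non-phytotoxic solvent mixture with surfactant. Post-emergence: plants 2 to 18 cm (1- to 4-leaf stage) in peat-based potting medium, same formulation. Greenhouse 13 to 15 d; visual rating 0 (no effect) to 100 (complete control) versus controls.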

[8] = test system: oilseed rape (Brassica napus); assay: Test C postemergence, plant response rating; details: Brassica napus, post-emergence
How it was run: as §2

[9] = test system: crabgrass, large (large crabgrass, Digitaria sanguinalis); assay: Test C postemergence, plant response rating; details: Digitaria sanguinalis, post-emergence
How it was run: as §2

[10] = test system: galium (catchweed bedstraw, Galium aparine); assay: Test C postemergence, plant response rating; details: Galium, post-emergence
How it was run: as §2

[11] = test system: blackgrass (Alopecurus myosuroides); assay: Test C postemergence, plant response rating; details: Alopecurus myosuroides, post-emergence
How it was run: as §2

[12] = test system: morningglory (Ipomoea coccinea); assay: Test C postemergence, plant response rating; details: Ipomoea, post-emergence
How it was run: as §2

kochia (Kochia scoparia) [13] = assay: Test C postemergence, plant response rating; details: Bassia scoparia, post-emergence
How it was run: as §2

[14] = test system: wheat (winter wheat, Triticum aestivum); assay: Test C postemergence, plant response rating; details: Triticum aestivum, post-emergence
How it was run: as §2

corn (Zea mays) = assay: Test C postemergence, plant response rating; details: Zea mays, post-emergence
How it was run: as §2

[15] = test system: barnyardgrass (Echinochloa crus-galli); assay: Test C postemergence, plant response rating; details: Echinochloa crus-galli, post-emergence
How it was run: as §2

[16] = 62 g ai/ha, scale 0 to 100 (0 no effect, 100 complete control)
[17] = 125 g ai/ha, scale 0 to 100 (0 no effect, 100 complete control)

Which results are given for O=C(OCCC(F)(F)F)c1c(Cl)cccc1Oc1ncc(Cl)cn1 [Compound 15, 3,3,3-trifluoropropyl 2-chloro-6-[(5-chloro-2-pyrimidinyl)oxy]benzoate]?
pest or weed control at 125 g/ha ([1]; 125 g ai/ha): 100%; pest or weed control at 500 g/ha ([1]; 500 g ai/ha): 100%; pest or weed control at 125 g/ha ([2]; 125 g ai/ha): 0%; pest or weed control at 500 g/ha ([2]; 500 g ai/ha): 10%; pest or weed control at 125 g/ha ([3]; 125 g ai/ha): 100%; pest or weed control at 500 g/ha ([3]; 500 g ai/ha): 100%; pest or weed control at 125 g/ha (kochia (Kochia scoparia) [4]; 125 g ai/ha): 100%; pest or weed control at 500 g/ha (kochia (Kochia scoparia) [4]; 500 g ai/ha): 100%; pest or weed control at 125 g/ha ([5]; 125 g ai/ha): 40%; pest or weed control at 500 g/ha ([5]; 500 g ai/ha): 90%; pest or weed control at 125 g/ha ([6]; 125 g ai/ha): 100%; pest or weed control at 500 g/ha ([6]; 500 g ai/ha): 100%; pest or weed control at 16 g/ha ([7]; 16 g ai/ha, scale 0 to 100): 0%; pest or weed control at 31 g/ha ([7]; 31 g ai/ha, scale 0 to 100): 0%; pest or weed control at 62 g/ha [7, 16]: 5%; pest or weed control at 125 g/ha [7, 17]: 20%; plant injury at 16 g/ha ([8]; 16 g ai/ha, scale 0 to 100): 45%; plant injury at 31 g/ha ([8]; 31 g ai/ha, scale 0 to 100): 95%; plant injury at 62 g/ha [8, 16]: 100%; plant injury at 125 g/ha [8, 17]: 0%; pest or weed control at 16 g/ha ([9]; 16 g ai/ha, scale 0 to 100): 30%; pest or weed control at 31 g/ha ([9]; 31 g ai/ha, scale 0 to 100): 20%; pest or weed control at 62 g/ha [9, 16]: 25%; pest or weed control at 125 g/ha [9, 17]: 25%; pest or weed control at 16 g/ha ([10]; 16 g ai/ha, scale 0 to 100): 70%; pest or weed control at 31 g/ha ([10]; 31 g ai/ha, scale 0 to 100): 60%; pest or weed control at 62 g/ha [10, 16]: 95%; pest or weed control at 125 g/ha [10, 17]: 95%; pest or weed control at 16 g/ha ([11]; 16 g ai/ha, scale 0 to 100): 0%; pest or weed control at 31 g/ha ([11]; 31 g ai/ha, scale 0 to 100): 5%; pest or weed control at 62 g/ha [11, 16]: 10%; pest or weed control at 125 g/ha [11, 17]: 10%; pest or weed control at 16 g/ha ([12]; 16 g ai/ha, scale 0 to 100): 65%; pest or weed control at 31 g/ha ([12]; 31 g ai/ha, scale 0 to 100): 75%; pest or weed control at 62 g/ha [12, 16]: 85%; pest or weed control at 125 g/ha [12, 17]: 90%; pest or weed control at 16 g/ha (kochia (Kochia scoparia) [13]; 16 g ai/ha, scale 0 to 100): 90%; pest or weed control at 31 g/ha (kochia (Kochia scoparia) [13]; 31 g ai/ha, scale 0 to 100): 95%; pest or weed control at 62 g/ha (kochia (Kochia scoparia) [13]; [16]): 95%; pest or weed control at 125 g/ha (kochia (Kochia scoparia) [13]; [17]): 95%; plant injury at 16 g/ha ([14]; 16 g ai/ha, scale 0 to 100): 0%; plant injury at 31 g/ha ([14]; 31 g ai/ha, scale 0 to 100): 0%; plant injury at 62 g/ha ([14]; 62 g ai/ha, scale 0 to 100 (0 no effect, 100 complete control), read-out: Wheat plant response rating): 0%; plant injury at 125 g/ha [14, 17]: 0%; Corn plant response rating (crop injury, 0 = no effect, 100 = complete kill) at 16 g/ha (corn (Zea mays); 16 g ai/ha, scale 0 to 100): 15%; Corn plant response rating (crop injury, 0 = no effect, 100 = complete kill) at 31 g/ha (corn (Zea mays); 31 g ai/ha, scale 0 to 100): 10%; plant injury at 62 g/ha (corn (Zea mays); [16]): 20%; plant injury at 125 g/ha (corn (Zea mays); [17]): 20%; pest or weed control at 16 g/ha ([15]; 16 g ai/ha, scale 0 to 100): 20%; pest or weed control at 31 g/ha ([15]; 31 g ai/ha, scale 0 to 100): 15%; pest or weed control at 62 g/ha [15, 16]: 20%; pest or weed control at 125 g/ha [15, 17]: 20%
